In patent US6716829B2, “Aldosterone antagonist and cyclooxygenase-2 inhibitor combination therapy to prevent or treat inflammation-related cardiovascular disorders” (Pharmacia Corporation, priority 2000, dated 2004):
Entries after “also recorded” stand apart in the source; their conditions may differ.

Legend:
osteopontin = assay: Assay B: osteopontin mRNA in heart by quantitative RT-PCR (Taqman); type: in vivo, Male Sprague Dawley rats
Protocol: Assay B: In Vivo Aldosterone Infusion Model Male Sprague Dawley rats (n=39; BW=250 g) 2. Aldosterone ([…], sc via alzet minipump) 2. […] Hearts were harvested and divided by half through a transverse section at the mid-ventricles: The upper half was stored into formalin. The bottom part was snap-frozen in liquid nitrogen for biochemical analysis. Determination of osteopontin and COX-2 was performed by quantitative RT-PCR (Taqman). Osteopontin was also identified in the heart by immunohistochemistry.

interstitial collagen = assay: Assay B: myocardial fibrosis (interstitial collagen volume fraction, hydroxyproline concentration); type: in vivo, Male Sprague Dawley rats; details: aldosterone/salt treatment, 4 weeks
Protocol: Assay B: In Vivo Aldosterone Infusion Model Male Sprague Dawley rats (n=39; BW=250 g) […] Uni-nephrectomy performed during implantation of mini-pumps 2. Aldosterone ([…], sc via alzet minipump) 2. […] Hearts were stained with hematoxylin&eosin and the collagen specific dye picro-sirius red and were analyzed for determination of interstitial collagen volume fraction and morphologic abnormalities (i.e. necrosis, vascular injury). Hydroxyproline concentration was measured in the frozen hearts.

[1] = test system: angiotensin II infused, captopril treated stroke prone spontaneously hypertensive rats; assay: Urinary protein excretion in angiotensin II infused, captopril treated stroke prone spontaneously hypertensive rats; type: in vivo; details: captopril treated stroke prone spontaneously hypertensive rats (FIG. 35)
MCP-1 = assay: Assay B: MCP-1 mRNA expression at 28 days; type: in vivo, Male Sprague Dawley rats; details: aldosterone infused rats, 28 days (FIG. 46)
Protocol: (§1) Assay B: In Vivo Aldosterone Infusion Model Male Sprague Dawley rats (n=39; BW=250 g) 2. Aldosterone (0.75 mg/hr, sc via alzet minipump) 2.

[2] = test system: angiotensin II infused, captopril treated stroke prone spontaneously hypertensive rats; assay: Histopathological scores for renal injury in angiotensin II infused, captopril treated stroke prone spontaneously hypertensive rats; type: in vivo; details: captopril treated stroke prone spontaneously hypertensive rats (FIG. 36)
[3] = test system: stroke-prone spontaneously hypertensive rats; assay: Survival and cerebral injury in stroke-prone spontaneously hypertensive rats; type: in vivo
[4] = test system: angiotensin II infused rats; assay: Assay A: urinary electrolyte excretion (urinary Na+/K+ ratio as index for natriuresis); type: in vivo, Male Wistar rats; details: 1% NaCl, eplerenone 100 mpk
Description: 24-hours food and fluid intake and urine output measured every day Urine samples collected every day for determination of urinary electrolytes. Electrolyte excretion. The ratio between daily urinary Na^+ excretion and urinary K^+ excretion (U Na^+/K^+ ratio) was used as an index for natriuresis. Urinary Na^+/K^+ ratio was similar in all groups before the start of the treatments, and increased similarly in all animals upon initiation of the high salt diet.

IL-6 = assay: Assay B: IL-6 mRNA expression at 28 days; type: in vivo, Male Sprague Dawley rats; details: aldosterone infused rats, 28 days (FIG. 46)
Protocol: as §1

| SMILES | Osteopontin mRNA upregulation (osteopontin; aldosterone/salt + vehicle vs control) | Osteopontin relative mRNA expression (osteopontin; hearts of aldosterone/salt-treated rats, quantitative RT-PCR, eplerenone 100 mpk) | Myocardial fibrosis (interstitial collagen volume fraction, hydroxyproline concentration) (interstitial collagen) | Increased urinary protein excretion [1] | MCP-1 expression (MCP-1) | Histopathological scores for renal injury [2] | Survival ([3]; stroke-prone spontaneously hypertensive rats (FIG. 37)) | Cerebral injury ([3]; stroke-prone spontaneously hypertensive rats (FIGS. 37, 38)) | Urinary Na+/K+ ratio (diuretic or natriuretic effect) [4] | IL-6 expression (IL-6) |
| --- | --- | --- | --- | --- | --- | --- | --- | --- | --- | --- |
| C[C@]12CCC(=O)C=C1CC[C@@H]1[C@@H]2[C@@H](O)C[C@]2(C=O)[C@@H](C(=O)CO)CC[C@@H]12 [Aldosterone] | 7 fold | 12.25±1.7 | absence of myocardial fibrosis |  |  |  |  |  |  |  |
| COC(=O)[C@@H]1CC2=CC(=O)CC[C@]2(C)[C@@]23O[C@@H]2C[C@@]2(C)[C@@H](CC[C@@]24CCC(=O)O4)[C@H]13 [Eplerenone] |  |  |  | inhibition | attenuated | reduction | increased survival | reduced cerebral injury; also recorded: decrease | did not produce a significant diuretic or natriuretic effect | attenuated |
